This note sets out measurements from patent US11780826B2 (Amgen Inc., priority 2017, dated 2023).

For the experiment, the system named is Bovine cardiac myofibrils. Briefly: In vitro model of dose-dependent myofibril ATPase modulation (AC1.4, pyruvate kinase/lactate dehydrogenase-coupled ATPase assay at pCa25). The class given is biochemical. Particulars: concentration at which ATPase activity was 1.4-fold higher than the bottom of the dose curve, mean of a minimum of two independent tests. In a few lines: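 ATP turnover tracked as NADH absorbance loss at 340 nm, coupled via pyruvate kinase/lactate dehydrogenase, with 1 mM ATP, 2 mM MgCl2 and 12 mM K-PIPES at pH 6.80 (22° C) under EGTA/CaCl2 calcium buffering. Substrate was detergent-treated bovine cardiac myofibrils; 4-parameter curve fit, AC1.4 averaged over at least two runs.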
For `O=C(NC1CN(S(=O)(=O)N2CCC[C@H](C(=O)N3CCC[C@@H]3C(=O)NCc3ccc(C(F)(F)F)cc3)C2)C1)C1CC1` [Example 710, 1-(((3S)-1-((3-((cyclopropylcarbonyl)amino)-1-azetidinyl)sulfonyl)-3-piperidinyl)carbonyl)-N-(4-(trifluoromethyl)benzyl)-D-prolinamide], the AC1.4 stood at 5.887 µM. As for `O=C(N[C@@H](c1cc(F)c(C(F)(F)F)cc1F)C1CC1)[C@H]1C[C@H]2C[C@H]2N1C(=O)c1cccc(C(F)(F)F)n1` [Example 615, (1R,3R,5R)-N-((R)-cyclopropyl(2,5-difluoro-4-(trifluoromethyl)phenyl)methyl)-2-((6-(trifluoromethyl)-2-pyridinyl)carbonyl)-2-azabicyclo[3.1.0]hexane-3-carboxamide], the AC1.4 is 3.8905 µM. Then `CC(C)(C)Nc1ccc(S(C)(=O)=O)cc1C(=O)N1CCC[C@@H]1C(=O)N[C@@H](c1ccc(C(F)(F)F)cc1F)C1CC1` [Example 186, N-((R)-cyclopropyl(2-fluoro-4-(trifluoromethyl)phenyl)methyl)-1-(2-((2-methyl-2-propanyl)amino)-5-(methylsulfonyl)benzoyl)-D-prolinamide], with 0.3372 µM; and `Cc1cc(F)ccc1CNC(=O)[C@H]1CCCN1C(=O)[C@H]1CCCN(S(=O)(=O)N2CC(C#N)C2)C1` [Example 381, 1-(((3S)-1-((3-cyano-1-azetidinyl)sulfonyl)-3-piperidinyl)carbonyl)-N-(4-fluoro-2-methylbenzyl)-D-prolinamide], with 1.268 µM; and `CS(=O)(=O)c1cccc(C(=O)N2[C@@H](C(=O)N[C@@H](c3ccc(C(F)(F)F)cc3F)C3CCC3)C[C@H]3C[C@H]32)c1` [Example 161, (1R,3R,5R)-N-((R)-cyclobutyl(2-fluoro-4-(trifluoromethyl)phenyl)methyl)-2-(3-(methylsulfonyl)benzoyl)-2-azabicyclo[3.1.0]hexane-3-carboxamide], with 0.2746 µM. The compound `O=C(NCc1ccc(Cl)c(F)c1)[C@H]1CCCN1C(=O)c1cccc(S(=O)(=O)N2CC(F)(F)C2)c1` [Example 238, N-(4-chloro-3-fluorobenzyl)-1-(3-((3,3-difluoro-1-azetidinyl)sulfonyl)benzoyl)-D-prolinamide] came in with an AC1.4 of 0.5606 µM. Under `CC(O)C(NC(=O)[C@H]1C[C@H]2C[C@H]2N1C(=O)c1cccc(S(C)(=O)=O)c1)c1cc(F)c(Cl)cc1F` (stereo partly drawn) [Example 757, (1R,3R,5R)-N-(1-(4-chloro-2,5-difluorophenyl)-2-hydroxypropyl)-2-(3-(methylsulfonyl)benzoyl)-2-azabicyclo[3.1.0]hexane-3-carboxamide] stands 7.6005 µM; under `N#CC1CN(S(=O)(=O)N2CCC[C@H](C(=O)N3C[C@@H](F)C[C@@H]3C(=O)NCc3ccc(C(F)(F)F)cc3)C2)C1` [Example 56, (4S)-1-(((3S)-1-((3-cyano-1-azetidinyl)sulfonyl)-3-piperidinyl)carbonyl)-4-fluoro-N-(4-(trifluoromethyl)benzyl)-D-prolinamide], 0.06215 µM. Under `O=C(N[C@@H](c1ccc(C(F)(F)F)cc1F)C1CC1)[C@H]1C[C@H](F)CN1C(=O)c1cccc(C2(F)COC2)c1` [Example 599, (4S)-N-((R)-cyclopropyl(2-fluoro-4-(trifluoromethyl)phenyl)methyl)-4-fluoro-1-(3-(3-fluoro-3-oxetanyl)benzoyl)-D-prolinamide] stands 3.5615 µM. Under `CS(=O)(=O)c1cccc(C(=O)N2[C@@H](C(=O)N[C@@H]3CCc4cc(Cl)ccc43)C[C@H]3C[C@H]32)c1` [Example 753, (1R,3R,5R)-N-((1R)-5-chloro-2,3-dihydro-1H-inden-1-yl)-2-(3-(methylsulfonyl)benzoyl)-2-azabicyclo[3.1.0]hexane-3-carboxamide] stands 7.42 µM; under `CS(=O)(=O)c1cc(C(=O)N2CCC[C@@H]2C(=O)N[C@@H](c2ccc(C(F)(F)F)cc2F)C2CC2)ccc1F` [Example 690, N-((R)-cyclopropyl(2-fluoro-4-(trifluoromethyl)phenyl)methyl)-1-(4-fluoro-3-(methylsulfonyl)benzoyl)-D-prolinamide], 5.354 µM; under `O=C(NCc1ccc(C(F)(F)F)cc1F)[C@H]1CCCN1C(=O)[C@H]1CCCN(S(=O)(=O)N2CC(n3ccnn3)C2)C1` [Example 151, N-(2-fluoro-4-(trifluoromethyl)benzyl)-1-(((3S)-1-((3-(1H-l,2,3-triazol-1-yl)-1-azetidinyl)sulfonyl)-3-piperidinyl)carbonyl)-D-prolinamide], 0.2616 µM.

Turning to `O=C(NCc1ccc(C(F)(F)F)cc1)[C@H]1CCCN1C(=O)[C@H]1CCCN(S(=O)(=O)N2CC(c3cccc(Cl)c3)C2)C1` [Example 398, 1-(((3S)-1-((3-(3-chlorophenyl)-1-azetidinyl)sulfonyl)-3-piperidinyl)carbonyl)-N-(4-(trifluoromethyl)benzyl)-D-prolinamide], the AC1.4 worked out at 1.4045 µM. Consider `C[C@H](C(=O)N[C@H](C)c1ccc(C(F)(F)F)cc1F)N(C)C(=O)[C@H]1CCCN(S(=O)(=O)N2CC(C#N)C2)C1` [Example 209, (3S)-1-((3-cyano-1-azetidinyl)sulfonyl)-N-((2R)-1-(((1R)-1-(2-fluoro-4-(trifluoromethyl)phenyl)ethyl)amino)-1-oxo-2-propanyl)-N-methyl-3-piperidinecarboxamide], for which the AC1.4 was 0.4473 µM. In the case of `CCS(=O)(=O)c1cccc(C(=O)N2CCC[C@@H]2C(=O)NCc2ccc(C(F)(F)F)cc2)c1` [Example 793, 1-(3-(ethylsulfonyl)benzoyl)-N-(4-(trifluoromethyl)benzyl)-D-prolinamide], the AC1.4 was found to be 9.129 µM. Then `N#CC1CN(S(=O)(=O)N2CCC[C@H](C(=O)N3CCC[C@@H]3C(=O)NCc3c(F)c(F)cc(F)c3F)C2)C1` [Example 623, 1-(((3S)-1-((3-cyano-1-azetidinyl)sulfonyl)-3-piperidinyl)carbonyl)-N-(2,3,5,6-tetrafluorobenzyl)-D-prolinamide], with 3.975 µM; and `CS(=O)(=O)c1cc(C(=O)N2CCC[C@@H]2C(=O)N[C@@H](c2cc(F)c(Cl)cc2F)C2CC2)ccn1` [Example 421, N-((R)-(4-chloro-2,5-difluorophenyl)(cyclopropyl)methyl)-1-((2-(methylsulfonyl)-4-pyridinyl)carbonyl)-D-prolinamide], with 1.4335 µM. Under `Cc1ccc(C(F)(F)F)c(CNC(=O)[C@H]2CCCN2C(=O)[C@H]2CCCN(S(=O)(=O)N3CC(C#N)C3)C2)c1` [Example 741, 1-(((3S)-1-((3-cyano-1-azetidinyl)sulfonyl)-3-piperidinyl)carbonyl)-N-(5-methyl-2-(trifluoromethyl)benzyl)-D-prolinamide] stands 7.1615 µM. As to `N#CC1CN(S(=O)(=O)N2CCC[C@H](C(=O)N3C[C@H](O)C[C@@H]3C(=O)NCc3ccc(C(F)(F)F)cc3)C2)C1` [Example 240, (2R,4R)-1-((S)-1-((3-cyanoazetidin-1-yl)sulfonyl)piperidine-3-carbonyl)-4-hydroxy-N-(4-(trifluoromethyl)benzyl)pyrrolidine-2-carboxamide], the AC1.4 was determined as 0.5685 µM.
